This test concerns HCV proteins in Rep5.1 cells (replicon cell line). The test is described as follows: Inhibitory activity of HCV: cell-based ELISA in replicon cell line Rep5.1 (decrease of HCV proteins). The settings on record: Rep5.1 cells, 72 hours with drug. Details: species or system hepatitis C virus. The method, boiled down: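 Rep5.1 replicon cells (5000/well, DMEM-10 with 500 μg/ml G418) were given serially diluted drug 4 h after seeding. After 72 h, cells were fixed in methanol/acetone and HCV proteins detected by cell-based ELISA using replicon-specific patient plasma antibodies. IC50 is the concentration giving 50% protein decrease versus the no-drug control.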
(An ELISA detects its analyte on a solid surface through an enzyme-linked reagent.)

Setting [1] is: Hepatitis C virus, 72 h, concentration at which 50% of HCV proteins was decreased, Table 2, read-out: IC50.
[2] abbreviates: Hepatitis C virus, 72 h, decrease of HCV proteins measured by HCV antibody, Table 1, read-out: Level (IC50 values classified).

Our source for the IC50 values is US20060116390A1, “Hepatitis c virus inhibitors” (priority 2003, published 2006).

Like-named read-outs stand apart in the source and are kept apart here. Where only a bound is given, the exact number is not on record here.

What is called IC50 is the concentration that inhibits the measured activity by half.

As for `CCOC(=O)OCC1NC(=S)NC(C)=C1C(=O)OCCc1cccc(Cl)c1` (stereo not shown) [49″, 4-ethoxycarbonyloxymethyl-6-methyl-2-thioxo-1,2,3,4-tetrahydro-pyrimidine-5-carboxylic acid 2-(3-chloro-phenyl)-ethyl ester], the IC50 is 3000 nM under setting [1] and 1000 to 10000 nM under setting [2]. With `CC1=C(C(=O)OCc2cc([N+](=O)[O-])ccc2Cl)C(CF)NC(=S)N1` (stereo not shown) [83′, 4-fluoromethyl-6-methyl-2-thioxo-1,2,3,4-tetrahydro-pyrimidine-5-carboxylic acid 2-chloro-5-nitro-benzyl ester], the IC50 by setting is: under setting [1], 5700 nM; under setting [2], 1000 to 10000 nM.

`CC(=O)OCC1NC(=S)NC(C)=C1C(=O)OCCCCc1ccsc1` (stereo not shown) [26″, 4-acetoxymethyl-6-methyl-2-thioxo-1,2,3,4-tetrahydro-pyrimidine-5-carboxylic acid 4-thiophen-3-yl-butyl ester]: the IC50 under setting [1] turned out to be 2000 nM and the IC50 under setting [2] was 1000 to 10000 nM.

On to `CC1=C(C(=O)OCCCc2cccc(OC(F)(F)F)c2)CNC(=S)N1` [Compound 106, 6-methyl-2-thioxo-1,2,3,4-tetrahydro-pyrimidine-5-carboxylic acid 3-(3-trifluoromethoxy-phenyl)-propyl ester], for which the IC50 was less than 400 nM under setting [1] and less than 1000 nM under setting [2]. On the same counts, the results for `CC1=C(C(=O)OCCOCCc2ccsc2)C(CO)NC(=S)N1` (stereo not shown) [16″, 4-hydroxymethyl-6-methyl-2-thioxo-1,2,3,4-tetrahydro-pyrimidine-5-carboxylic acid 2-(2-thiophen-3-yl-ethoxy)-ethyl ester] are more than 100000 nM and more than 20000 nM.

As to `CC1=C(C(=O)OCCc2ccc(F)c(F)c2)C(CF)NC(=S)N1` (stereo not shown) [90′, 4-fluoromethyl-6-methyl-2-thioxo-1,2,3,4-tetrahydro-pyrimidine-5-carboxylic acid 2-(3,4-difluoro-phenyl)-ethyl ester], the 50% inhibitory concentration (IC50) reads like this: under setting [1], 800 nM; under setting [2], less than 1000 nM.

With `CC1=C(C(=O)OCCOCCc2ccsc2)CNC(=S)N1` [54′, 6-methyl-2-thioxo-1,2,3,4-tetrahydro-pyrimidine-5-carboxylic acid 2-(2-thiophen-3-yl-ethoxy)-ethyl ester], the IC50 is, setting by setting: under setting [1], 5000 nM; under setting [2], 1000 to 10000 nM. For `CC1=C(C(=O)OCc2ccc(OCc3ccccc3)cc2)CNC(=S)N1` [Compound 49, 6-methyl-2-thioxo-1,2,3,4-tetrahydro-pyrimidine-5-carboxylic acid 4-benzyloxy-benzyl ester] the same measures were less than 500 nM and less than 1000 nM. On the same counts, the results for `CC1=C(C(=O)OCCc2c(F)cccc2F)C(CO)NC(=S)N1` (stereo not shown) [39″, 4-hydroxymethyl-6-methyl-2-thioxo-1,2,3,4-tetrahydro-pyrimidine-5-carboxylic acid 2-(2,6-difluoro-phenyl)-ethyl ester] are 20000 nM and 10000 to 20000 nM.

As for `COc1cc(COC(=O)C2=C(C)NC(=S)NC2)cc(OC)c1` [Compound 81, 6-methyl-2-thioxo-1,2,3,4-tetrahydro-pyrimidine-5-carboxylic acid 3,5-dimethoxy-benzyl ester], the concentration for half-maximal inhibition (IC50) by setting is: under setting [1], 3000 nM; under setting [2], 1000 to 10000 nM. On the same counts, the results for `CC1=C(C(=O)OCCCc2ccco2)C(CF)NC(=S)N1` (stereo not shown) [Compound 270, 4-fluoromethyl-6-methyl-2-thioxo-1,2,3,4-tetrahydro-pyrimidine-5-carboxylic acid 3-furan-2-yl-propyl ester] are 5000 nM and 1000 to 10000 nM. Regarding `COc1ccccc1COC(=O)C1=C(C)NC(=S)NC1` [Compound 65, 6-methyl-2-thioxo-1,2,3,4-tetrahydro-pyrimidine-5-carboxylic acid 2-methoxy-benzyl ester], the IC50 is 1000 nM under setting [1] and less than 1000 nM under setting [2]. On the same counts, the results for `CC1=C(C(=O)OCc2ccc(-c3cc(C(F)(F)F)n(C)n3)s2)CNC(=S)N1` [Compound 222, 6-methyl-2-thioxo-1,2,3,4-tetrahydro-pyrimidine-5-carboxylic acid 5-(1-methyl-5-trifluoromethyl-1H-pyrazol-3-yl)-thiophen-2-ylmethyl ester] are less than 400 nM and less than 1000 nM. On the same counts, the results for `CC1=C(C(=O)OC(C)CCc2ccccc2)CNC(=S)N1` (stereo not shown) [Compound 42, 6-methyl-2-thioxo-1,2,3,4-tetrahydro-pyrimidine-5-carboxylic acid 1-methyl-3-phenyl-propyl ester] are 500 nM and less than 1000 nM. As for `CC1=C(C(=O)OCCc2ccc(F)cc2)CNC(=S)N1` [Compound 259, 6-methyl-2-thioxo-1,2,3,4-tetrahydro-pyrimidine-5-carboxylic acid 2-(4-fluoro-phenyl)-ethyl ester], the 50% inhibitory concentration (IC50) runs as follows: under setting [1], less than 400 nM; under setting [2], less than 1000 nM.

On to `CC1=C(C(=O)OCC2CCCCC2)CNC(=S)N1` [Compound 29, 6-methyl-2-thioxo-1,2,3,4-tetrahydro-pyrimidine-5-carboxylic acid cyclohexylmethyl ester], for which the half-inhibitory concentration (IC50) was 300 nM under setting [1] and less than 1000 nM under setting [2]. On to `CC1=C(C(=O)OCc2ccccc2C(F)(F)F)C(CF)NC(=S)N1` (stereo not shown) [37′, 4-fluoromethyl-6-methyl-2-thioxo-1,2,3,4-tetrahydro-pyrimidine-5-carboxylic acid 2-trifluoromethyl-benzyl ester], for which the IC50 is 600 nM under setting [1] and less than 1000 nM under setting [2]. On the same counts, the results for `COc1ccc(Cl)cc1CCOC(=O)C1=C(C)NC(=S)NC1CO` (stereo not shown) [56″, 4-hydroxymethyl-6-methyl-2-thioxo-1,2,3,4-tetrahydro-pyrimidine-5-carboxylic acid 2-(5-chloro-2-methoxy-phenyl)-ethyl ester] are 600 nM and less than 1000 nM. For the compound `CCOC(=O)C1NC(=S)NC(C)=C1C(=O)OCCc1ccsc1` (stereo not shown) [6′, 6-methyl-2-thioxo-1,2,3,4-tetrahydro-pyrimidine-4,5-dicarboxylic acid 4-ethyl ester 5-(2-thiophen-3-yl-ethyl) ester], the IC50 runs as follows: under setting [1], more than 100000 nM; under setting [2], more than 20000 nM.

Consider `CSc1ccc(CCCOC(=O)C2=C(C)NC(=S)NC2)cc1` [Compound 105, 6-methyl-2-thioxo-1,2,3,4-tetrahydro-pyrimidine-5-carboxylic acid 3-(4-methylsulfanyl-phenyl)-propyl ester], for which the IC50 was less than 400 nM under setting [1] and less than 1000 nM under setting [2]. For `CCOc1ccccc1COC(=O)C1=C(C)NC(=S)NC1CF` (stereo not shown) [Compound 263, 4-fluoromethyl-6-methyl-2-thioxo-1,2,3,4-tetrahydro-pyrimidine-5-carboxylic acid 2-ethoxy-benzyl ester] the same measures were 1700 nM and less than 1000 nM. On the same counts, the results for `CSc1ccc(CCOC(=O)C2=C(C)NC(=S)NC2CO)cc1` (stereo not shown) [45″, 4-hydroxymethyl-6-methyl-2-thioxo-1,2,3,4-tetrahydro-pyrimidine-5-carboxylic acid 2-(4-methylsulfanyl-phenyl)-ethyl ester] are 2700 nM and 1000 to 10000 nM. For `CC1=C(C(=O)OCCCc2cccs2)C(CO)NC(=S)N1` (stereo not shown) [4″, 4-hydroxymethyl-6-methyl-2-thioxo-1,2,3,4-tetrahydro-pyrimidine-5-carboxylic acid 3-thiophen-2-yl-propyl ester] the same measures were 2500 nM and 1000 to 10000 nM. In the case of `CC1=C(C(=O)O[C@H](C)c2ccccc2)CNC(=S)N1` (racemic) [Compound 26, 6-methyl-2-thioxo-1,2,3,4-tetrahydro-pyrimidine-5-carboxylic acid (R,S)-1-phenyl-ethyl ester], where the note is “concentration at which 50% of HCV proteins was decreased, Table 2, read-out: IC50”, the IC50 was determined as 3000 nM.

`CC1=C(C(=O)OCCc2c(F)cccc2Cl)C(CF)NC(=S)N1` (stereo not shown) [87′, 4-fluoromethyl-6-methyl-2-thioxo-1,2,3,4-tetrahydro-pyrimidine-5-carboxylic acid 2-(2-chloro-6-fluoro-phenyl)-ethyl ester]: the IC50 is, setting by setting: under setting [1], less than 400 nM; under setting [2], less than 1000 nM. On the same counts, the results for `CC1=C(C(=O)OCCOC2CCc3ccccc32)CNC(=S)N1` (stereo not shown) [Compound 125, 6-methyl-2-thioxo-1,2,3,4-tetrahydro-pyrimidine-5-carboxylic acid 2-(indan-1-yloxy)-ethyl ester] are 2000 nM and 1000 to 10000 nM. As for `CC1=C(C(=O)OCc2cccc3ccccc23)CNC(=S)N1` [Compound 10, 6-methyl-2-thioxo-1,2,3,4-tetrahydro-pyrimidine-5-carboxylic acid naphthalen-1-ylmethyl ester], the IC50 by setting is: under setting [1], 1000 nM; under setting [2], less than 1000 nM. On the same counts, the results for `CCOc1ccccc1CCOC(=O)C1=C(C)NC(=S)NC1` [Compound 273, 6-methyl-2-thioxo-1,2,3,4-tetrahydro-pyrimidine-5-carboxylic acid 2-(2-ethoxy-phenyl)-ethyl ester] are 800 nM and less than 1000 nM. On the same counts, the results for `O=C(OCc1ccccc1)C1=C(C(=O)OCc2ccccc2)NC(=S)NC1` [Compound 87, 2-thioxo-1,2,3,6-tetrahydro-pyrimidine-4,5-dicarboxylic acid dibenzyl ester] are 56000 nM and more than 20000 nM. On the same counts, the results for `CC1=C(C(=O)OCc2cc(Cl)cc(Cl)c2)C(COS(C)(=O)=O)NC(=S)N1` (stereo not shown) [50″, 4-methanesulfonyloxymethyl-6-methyl-2-thioxo-1,2,3,4-tetrahydro-pyrimidine-5-carboxylic acid 3,5-dichloro-benzyl ester] are 68000 nM and more than 20000 nM. With `CC1=C(C(=O)OCc2ccc(C)c(C)c2)CNC(=S)N1` [Compound 76, 6-methyl-2-thioxo-1,2,3,4-tetrahydro-pyrimidine-5-carboxylic acid 3,4-dimethyl-benzyl ester], the 50% inhibitory concentration (IC50) under setting [1] turned out to be 600 nM and the half-inhibitory concentration (IC50) under setting [2] is less than 1000 nM.
